The record followed here is a melting point compilation (Tetko et al.; mined from patent text by program, amines drawn as free bases though some values may be those of a salt).

Regarding `OC(CCN1CC=C(c2ccc(Cl)cc2)CC1)c1ccc(Cl)cc1Cl` (stereo not drawn), the melting point (commonly the temperature of the solid-liquid transition) is 96 to 98 °C.

Turning to `O=C(CCCC(=O)N1CCC[C@H]1C(=O)O)c1ccccc1`, the melting point was 102 to 105 °C.

For `COc1ccc(CC(=O)NCCc2ccccc2)cc1OC`, the melting point lay in the range of 123 to 124 °C.

Take `Cc1c(Nc2c(C#N)cncc2-c2coc(CN3CCN(C)CC3)c2)ccc2[nH]ccc12`: the melting point is 129 °C.

With `COC(=O)COc1ccc(C=Cc2nc(-c3ccccc3)c(-c3ccccc3)o2)cc1`, the melting point lay in the range of 122 to 123 °C.

`Cc1ccc(Oc2ccccc2C(=N)NO)c(O)c1` came in with a melting point of 85 to 87 °C.

Turning to `O=C1Cc2ccccc2Sc2c1ccc(Cl)c2Cl`, the melting point lay within 133 to 135 °C.

`COc1cccc(C(=O)Nc2cc(C(=O)NCc3ccccc3)ccn2)c1` had a melting point of 95 to 96 °C.

In turn, `CN(C)C(=O)c1ccc(CCC(=O)c2cccc(OCc3ccc4ccc(Cl)cc4n3)c2)o1` displayed a melting point of 129 to 131 °C.

`O=C1c2c(O)ccc(O)c2C(=O)c2c(NCCNCCO)ccc(NCCNCCO)c21`: the melting point lay in the range of 175 to 177 °C.

Regarding `O=CN1CC2CCCc3c(C(=O)CCCl)ccc1c32` (stereo not drawn), the melting point lay within 82 to 85 °C.

In the case of `CC(C)(C)OC(=O)N1C2CCC1CN(CCCNc1ccc(C#N)cc1)C2`, the melting point was 124 to 127 °C.

Turning to `Cc1nc(N2CCN(CC(C)C)C2=O)sc1C(=O)NCc1ccncc1`, the melting point is 185 to 187 °C.

`CCOCn1c(Sc2ccc(Cl)c(Cl)c2)c(Br)c(C#N)c1-c1ccc(Cl)cc1`: the melting point lay in the range of 105 to 107 °C.

Compound `Cc1nc2cccc(C(F)(F)F)c2c(=O)n1C1CCC(=O)NC1=O` (stereo not drawn) showed a melting point of 268 to 270 °C.

Compound `CCN1Cc2cccnc2N(c2cccc(C(F)(F)F)c2)C1=O` yielded a melting point of 155 to 157 °C.

Take `CC(C)OC(=O)c1cc(-n2c(=O)[nH]c3c(c2=O)CCC3)c(Cl)cc1Cl`: the melting point lay in the range of 186 to 189 °C.

In the case of `CC(C)(C)OC(=O)C[C@H](NC(=O)CCCC(=O)Nc1ccc(C#N)cc1)C(=O)N[C@@H](Cc1ccccc1)C(=O)OC(C)(C)C`, the melting point fell in the range of 64 to 66 °C.

Turning to `O=S(=O)(F)CCCCCCCc1ccc(OCc2ccccc2)cc1`, the melting point was in the range of 35 to 38 °C.

As to `COC(=O)c1ccc(Cl)c(Cl)c1NS(C)(=O)=O`, the melting point was in the range of 100 to 102 °C.

The compound `CON1CCC2(CC1)NC(=O)NC2=O` displayed a melting point of 230 to 234 °C.

For the compound `O=C1CC(c2cccc(-n3ccnc3)c2)=Nc2ccc(C#Cc3ccccc3)cc2N1`, the melting point was in the range of 193 to 196 °C.

The compound `Cc1ccc(-c2[nH]c(-c3cccnc3)nc2C(=O)O)cc1` returned a melting point of 140 to 142 °C.

Consider `COC(=O)Cc1n[nH]c2ccccc12`, for which the melting point came out at 146 °C.

In turn, `CC(C)(OCc1nn(C(=O)c2ccccc2)c2ccccc12)C(=O)O` gave a melting point of 132 to 135 °C.

The compound `COc1ccc(C2=C(OC(C)=O)C(=O)Nc3ccc(Cl)cc3S2)cc1` gave a melting point of 236 to 238 °C.

As for `COc1cc(C(C)=O)cc(OC)c1O[Si](C)(C)C(C)(C)C`, the melting point was 90 to 92 °C.

For the compound `O=C(CC(=O)Oc1cc(O)cc(O)c1)Oc1cc(O)cc(O)c1`, the melting point is 258 to 260 °C.

Compound `CC(C)(C)c1cc(NC(=O)c2csc(-c3ccc(N)cc3)n2)cc(C(C)(C)C)c1O` returned a melting point of 267 to 268 °C.

The compound `Sc1nc2cnccc2[nH]1` came in with a melting point of over 320 °C.

For the compound `Cc1noc(NS(=O)(=O)c2ccccc2-c2ccc(-c3ncco3)cc2CN2CC(C)(C)CC2=O)c1C`, the melting point is 118 to 125 °C.

Compound `O=S(CCCCCOc1ccc(C2=C(c3ccccc3)CCCc3cc(O)ccc32)cc1)CCCC(F)(F)C(F)(F)F` (stereo not drawn) came in with a melting point of 138 to 140 °C.

Turning to `O=C(Nc1ccc(-c2cnc(-c3ccc(NC(=O)C45CC6CC(CC(C6)C4)C5)cc3)[nH]2)cc1)c1cccnc1`, the melting point is 251 to 252 °C.

On to `CCOC(=O)Cc1cc(OC)c(OC(C)=O)c(C2(OC(C)=O)C(=O)c3ccccc3C2=O)c1`, for which the melting point was in the range of 102 to 107 °C.

`CCCCCCCCCCC(C)(C)C(=O)Nc1c(C)c(N)c(C)c2c1OC(C)(C)C2`: the melting point is 125 °C.

Compound `O=C1NCCN1c1ccc(F)cc1N1CCN(C/C=C/c2ccc(Cl)cc2)CC1` yielded a melting point of 170 to 172 °C.

`O=C1CNC(=O)N1Cc1ccc2ccn(C3CCN(CCc4ccc(F)cc4)CC3)c2c1` returned a melting point of 156 to 157 °C.

For `CC(=O)OC1CSC(Oc2cccnc2-c2ccccc2)C(OC(C)=O)C1OC(C)=O` (stereo not drawn), the melting point is 69 to 101 °C.

`CC(C)(Cl)CC(=O)c1cc(C(C)(C)C)c(O)c(C(C)(C)C)c1` came in with a melting point of 101 to 102 °C.

Compound `Cc1ncoc1C(=O)c1ccccc1` showed a melting point of 84 to 86 °C.

As for `COC(=O)Cc1ccc(OCCNC(=O)[C@@H]2Cc3ccccc3N2S(=O)(=O)c2ccc(OC(C)(C)C)cc2)cc1`, the melting point was in the range of 45 to 48 °C.

In turn, `Nc1ccc(Oc2ccc(Cl)c(Cl)c2)nc1` showed a melting point of 78 to 79.3 °C.

For `O=C(Cc1cccc2ccccc12)NCc1cccc2c1C(=O)N(C1CCC(=O)NC1=O)C2=O` (stereo not drawn), the melting point was 187 to 189 °C.

As to `CCCn1cc2c(C3C(=O)Nc4ccc(Br)cc43)nc(NCCC(F)(F)F)nc2n1` (stereo not drawn), the melting point was over 300 °C.

`CN(c1ccc(S(C)(=O)=O)cc1)S(=O)(=O)c1cccc(NC(=O)c2ccc(Br)cc2)c1` had a melting point of 216 to 218 °C.

`Cc1cccc(C)c1CNc1cc(C2=NCCO2)cc2c1nc(C)n2C`: the melting point turned out to be 235 °C.

For the compound `O=[N+]([O-])c1ccc(Oc2ccc(C(F)(F)F)cc2Cl)nc1O`, the melting point lay within 87 to 93 °C.

Consider `Oc1ccc2c(c1O)Cc1cccc3c1C2CNC3` (stereo not drawn), for which the melting point lay in the range of 175 to 176 °C.

For the compound `COC(=O)c1cc(Nc2ccccc2)c(Nc2ccccc2)cc1C(=O)OC`, the melting point was determined as 178 °C.

In the case of `O=C1C(c2cccc(-c3ccccc3)c2)n2cncc2CN1Cc1ccccc1` (stereo not drawn), the melting point fell in the range of 232 to 234 °C.

Turning to `COc1ccc(-c2nc(N3CCN(C)CC3)c3c(C)c(C#N)sc3n2)cc1OC`, the melting point is 208 to 209 °C.

`C=CCN(NC(=O)c1ccc(Cl)c(S(N)(=O)=O)c1)c1ccccc1` returned a melting point of 99 to 101 °C.

`O=C1CCC(=NNc2ccccc2)c2ncccc2N1` showed a melting point of 206 °C.

In turn, `CCSc1ccc2oc3cc(-c4nnn[nH]4)ccc3c(=O)c2c1` displayed a melting point of 261 to 262 °C.

`COc1cccc2[nH]c(C(=O)OCc3ccccc3)cc12` gave a melting point of 162 to 164 °C.

`Cc1ccc2c(c1)C(O)(c1ccccc1Cl)C(=O)N2` (stereo not drawn): the melting point lay within 295 to 300 °C.

`COc1cncc(-c2cccc(OC3SCC(OC(C)=O)C(OC(C)=O)C3OC(C)=O)c2)c1` (stereo not drawn) yielded a melting point of 167 °C.

Turning to `COc1ccc(C(CC(=O)O)N2C(=O)c3ccccc3C2=O)cc1` (stereo not drawn), the melting point lay within 160 to 164 °C.

`NC(=O)Cc1ccc2c(c1)Cc1c-2[nH]c(=O)c2nccn12` had a melting point of over 260 °C.

Consider `OCCCNc1ccnc(Cl)n1`, for which the melting point was in the range of 113 to 114 °C.

In the case of `CC(C)(C)c1csc(-c2cc3cc(CSc4ccccc4C(=O)O)ccc3o2)n1`, the melting point lay within 205 to 207 °C.

`CC(=O)OC(CN(Cc1ccccc1)Cc1ccccc1)c1cc(C#N)c2c(c1)CCN2C(C)=O` (stereo not drawn) registered a melting point of 108 to 109 °C.

Turning to `CC(=O)c1ccc(Oc2ccc(-c3scc(-c4ccccc4Cl)c3CC(=O)N=C(N)N)cc2)cc1`, the melting point fell in the range of 117 to 118 °C.

For `Cc1ccc2c(N=[N+]=[N-])c(C(=O)O)cnc2n1`, the melting point came to 198 °C.

Consider `NC(=O)c1ccc(-c2n[nH]c3c2Cc2ccccc2-3)cc1`, for which the melting point fell in the range of 290 to 293 °C.

On to `COC1CN(c2ccc(N3C[C@H](CO)OC3=O)cc2F)C1`, for which the melting point was 131 to 132 °C.

With `N#CCc1cccc2c(=O)cc(C3(Br)CCCCC3)oc12`, the melting point was in the range of 144 to 145 °C.

Compound `CC(C)(C)OC(=O)NC1(C(=O)NCC(F)(F)F)CC1` yielded a melting point of 166 to 167 °C.

Take `Cc1cc(Cl)c2c(c1)C=C(/C=C/C=C/C=C/C(=O)O)CO2`: the melting point is 248 to 250 °C.

`CCOC(=O)Cc1c(C)nc(Nc2nc3cc(C)c(C)cc3[nH]2)nc1O` came in with a melting point of over 300 °C.

The compound `COC(=O)C1=C(Nc2ccccc2N)CSC1` displayed a melting point of 101 °C.

On to `Cn1c(C(F)(F)F)cc(=O)n(-c2ccc3snc(CCl)c3c2)c1=O`, for which the melting point was in the range of 201 to 203 °C.

`N=C(c1ccccc1)c1cc(F)cc(NC(=O)/C=C/c2ccccn2)c1` gave a melting point of 205 to 207 °C.

Consider `NC(=O)c1nc(Cl)n2c1CN=C(c1ccccc1Cl)c1cc(Cl)ccc1-2`, for which the melting point is 285 to 288 °C.

Consider `COc1cc2c(c(Cl)c1Cl)CCCC2=O`, for which the melting point lay within 150 to 151 °C.

The compound `O=C1C2=C(Nc3ccccc3C2)c2ccccc21` had a melting point of over 300 °C.

On to `C[Si](C)(C)CCCSCCCNC(=O)n1cc(F)c(=O)[nH]c1=O`, for which the melting point was in the range of 105 to 106 °C.

Regarding `Oc1c(C(=S)NCc2ccc(Cl)cc2)cnc2ccc(CN3CCOCC3)cc12`, the melting point was in the range of 215 to 216 °C.

For the compound `CC1CCN(c2c(C#N)c3c(c4c2Cc2ccccc2-4)-c2ccccc2C3)CC1`, the melting point is 166 to 168 °C.

Consider `O=C1CCCc2[nH]c3ccc(F)cc3c21`, for which the melting point was 255 to 260 °C.

In the case of `C=C(C(=O)c1cc(OC)c(OC)c(-c2cccs2)c1)c1ccc(C(=O)O)cc1`, the melting point is 159 to 160 °C.

`O=C(OCC1OC(c2ccc(Cl)c(Cc3cc4ccccc4s3)c2)C(OC(=O)c2ccccc2)C(OC(=O)c2ccccc2)C1F)c1ccccc1` (stereo not drawn) came in with a melting point of 204 to 207 °C.

With `O=S(c1ccc(C=Cc2nc(CCl)cs2)cc1)C(F)(F)F` (stereo not drawn), the melting point lay in the range of 98 to 99 °C.

`Cn1cc(-c2cc3cccnc3[nH]2)c2cc(C(=O)NC(CO)CO)ccc21` had a melting point of 178 to 179 °C.

Compound `COc1cc(OC)nc(NC(=O)NS(=O)(=O)c2cc(Br)cc3c2OS(=O)(=O)C=C3)n1` returned a melting point of 204 to 209 °C.

The compound `COc1c(CS(C)(=O)=O)cnc2ccccc12` came in with a melting point of 151 to 154 °C.

For `Cc1[nH]cc2c1-c1ccc(Cl)cc1C(c1ccccc1F)=NC2`, the melting point fell in the range of 226 to 227 °C.

With `Nc1cc2nc(-c3ccccc3)nn2cc1F`, the melting point was over 250 °C.
